The values below come from publication PMC6033896, “Discovery of Mcl-1 inhibitors from integrated high throughput and virtual screening” (Scientific Reports, 2018).

SMILES strings stand for the structures.

Test [1] concerns the target T1, 15N-labeled Mcl-1 (Homo sapiens, UniProt Q07820).
T1 construct: human Mcl-1 (residues 171–323); made in house; host or cells: E. coli (bacteria grown on M9 minimal medium with 15N ammonium sulphate)
The experiment in a line: 1H,15N HSQC NMR chemical shift perturbation. The note with it: direct binding to Mcl-1. As to the method:
NMR studies were performed as previously described. In brief, the ^15N-labeled Mcl-1 protein was prepared and purified using the same protocol as for unlabelled protein with the exception that the bacteria were grown on M9 minimal media supported with 1 g/L of (^15NH4)2SO4. Protein samples were prepared in a 20 mM sodium phosphate, 150 mM NaCl and 1 mM DTT solution at pH 7 in 7% D2O. The binding mode of compounds has been characterized with a solution of uniformly ^15N-labeled Mcl-1 (75 μM) in the absence and presence of added compounds (in 1 or 6% final DMSO) with the indicated molar ratio concentrations. The total volume of each sample was 150 μL and samples were prepared in Bruker tubes (Bruker, # Z117724). All Spectra were acquired at 30 °C on a Bruker 600 MHz NMR spectrometer equipped with a cryogenic probe, processed using Bruker TopSpin and rNMR, and were analysed with Sparky. Plots of chemical shift changes were calculated as ((Δ^1H ppm)2 + (0.2(Δ^15N ppm))2)0.5 of Mcl-1 amide upon addition of compound. The absence of a bar in a chemical shift plot indicates no chemical shift difference or the presence of a proline or residue that is overlapped or not assigned. The cutoff threshold for determining the significance of the chemical shift was based on one standard deviation above the average of all chemical shifts.

In test [2] the test system is Mcl-1/Noxa interaction. Set-up: method as in PubChem BioAssay AID 1417. Conditions: Dose Response Confirmation for Mcl-1/Noxa Interaction Inhibitors; ref PubChem BioAssay AID 1417; cited from earlier work.
Test [3] addresses T2, mutant Mcl-1 R263A (Homo sapiens, UniProt Q07820, R263A).
T2 construct: human Mcl-1 (residues 171–323); His tag (pHis-TEV vector) (N); made in house; host or cells: E. coli Rosetta2 DE3
In words: BLI-based direct binding assay. Conditions: compared with wild-type Mcl-1. As to the method: Mcl-1 and mutant Mcl-1 R263A proteins were biotinylated using the Thermo EZ-link Sulpho-NHS-LC-biotin biotinylation kit (cat. 21435). Protein and biotin were mixed in a 1:1 molar ratio in PBS on ice for 2 hours. The reaction mixture was dialyzed in PBS buffer to remove excess biotin. BLI experiments were performed using an OctetRED96 instrument from PALL/ForteBio. All experiments were performed at 30 °C using PBS (Gibco, #10010-23), and 0.005% Tween 20 as the assay buffer. Assays were conducted in 96-well, black, microplates (Greiner bio-one, #655209) containing the protein solutions for immobilization, pure assay buffer for dissociation, and serial dilutions of compounds in the presence of 5% DMSO to be tested. During the experiment, sample plates were continuously shaken at 1000 rpm. Biotinylated proteins were immobilized on Super Streptavidin (SSA) biosensors by dipping sensors into plate wells containing protein solutions. Biotinylated blocked Streptavidin sensors were used as control sensors prepared by the protocol provided from the manufacturer. Association (3 Minutes) and dissociation (3 Minutes) cycles of compounds were started by dipping sensors to compound wells with different tested concentrations as well as in pure buffer wells. Buffer-only reference was included in all assays. […]

The test system of test [4] is Eµ-myc lymphoma cells overexpressing Bcl-xL. The experiment in a line: Eµ-myc lymphoma cell viability, flow cytometry. Conditions: increasing concentrations, 15 h. It is filed as cell-based, mice. As to the method:
MEF cells, including wild-type, Bax/Bak double knockout, Bax−/− single knockout, and Bak−/− single knockout were tested and characterized (Supplementary Fig. S3). The cells were cultured in DMEM (Life Technologies), supplemented with 10% fetal bovine serum (FBS) (Thermo Scientific HyClone) and 1% Penicillin/streptomycin solution (Life Technologies). The retrovirally transduced lymphoma cells isolated from Eμ-myc transgenic mice were provided by Ricky W. Johnstone at the University of Melbourne, Melbourne, Australia and cultured as previously described[37],[65].
The Mcl-1, Bcl-2, and Bcl-xL retroviral transduced lymphoma Eμ-myc cells were seeded in 12-well plates at 0.5 × 10^6 cells/well. […] The cells were harvested and stained with violet LIVE/DEAD Fixable Dead Cell Stain Kit (Invitrogen) according to manufacturer’s protocol. The percentage of fluorescent positive cells was determined by flow cytometry and calculated using WinList 3.0.
In general terms: Flow cytometry measures light scatter and fluorescence of single cells or particles in a stream.

T2 sequence (Q07820 171-323 R263A): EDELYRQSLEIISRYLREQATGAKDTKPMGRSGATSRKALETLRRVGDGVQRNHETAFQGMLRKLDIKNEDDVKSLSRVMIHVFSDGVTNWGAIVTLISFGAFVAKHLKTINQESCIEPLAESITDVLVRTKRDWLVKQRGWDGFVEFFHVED
T1 sequence (Q07820 171-323): as the sequence (Q07820 171-323 R263A) above, with A93R counted along it

As usually defined, the IC50 is the concentration that inhibits the measured activity by half. On to `O=C(CSc1nnc(-c2ccco2)c(-c2ccco2)n1)Nc1ccccc1` [Compound 19], for which, in test [1], the “chemical shift perturbations of Mcl-1 amides (HSQC NMR)” value is “concentration-dependent perturbations”. Also, the IC50 in test [2] was 3.1 µM. In test [3], the “binding to mutant R263A Mcl-1 (BLI)” value is on record as “no appreciable binding”.

On to `O=C(CSc1nnc(-c2ccco2)c(-c2ccco2)n1)Nc1cccc(C(F)(F)F)c1` [Compound 39], for which the “effect on Eµ-myc cells overexpressing Bcl-xL” value in test [4] was “minimal effect”.
